Here are results for 15 compounds from patent US20250019377A1 (JACOBIO PHARMACEUTICALS CO., LTD, priority 2021, published 2025).

By IC50 is commonly meant the concentration that inhibits the measured activity by half.

Molecules are shown by their SMILES. Where two headings read alike, the source gives them in different places. Bounds are passed on as bounds.

In experiment [1] the target is T1, K-Ras G12V (Homo sapiens, UniProt P01116, G12V). The experiment can be described thus: SOS1 catalyzed nucleotide exchange assay (GDP form K-Ras), K-Ras G12V. Particulars: read-out: K-Ras G12V GDP Biochemical Activity (IC50).
Experiment [2] concerns the target T1, K-Ras G12V. Nature of the experiment: biochemical.
Experiment [3] has as its target T2, K-Ras WT (Homo sapiens, UniProt P01116). The experiment can be described thus: SOS1 catalyzed nucleotide exchange assay (GDP form K-Ras), K-Ras WT. To be noted: read-out: K-Ras WT GDP Biochemical Activity (IC50).
The target in experiment [4] is T3, K-Ras G13D (Homo sapiens, UniProt P01116, G13D). The experiment can be described thus: biochemical.
For experiment [5], the target named is T3, K-Ras G13D. The experiment can be described thus: biochemical. The source holds these as a separate data set.
Experiment [6] concerns p-ERK in SW620 cells (K-Ras G12V). The experiment can be described thus: Phospho-ERK1/2(THR202/TYR204) HTRF assay, SW620. The format is cell-based. To be noted: Homo sapiens, SW-620, 2 h, 2 hours incubation. A general note: TR-FRET usually uses a lanthanide donor and a delayed reading to cut background.
The subject of the next experiment is AGS cells (K-Ras G12D). Nature of the experiment: 2D cell growth inhibition assay, AGS. To be noted: Homo sapiens, 144 h, 6 days, absolute IC50. It counts as cell-based.
In experiment [7] the test system is AsPC-1 cells (K-Ras G12D). The experiment can be described thus: 2D cell growth inhibition assay, AsPC-1. The format is cell-based. To be noted: Homo sapiens, ASPC1, 144 h, AsPC-1, K-Ras G12D, 6 days, absolute IC50.
Experiment [8] concerns p-ERK in AGS cells (K-Ras G12D). The experiment can be described thus: Phospho-ERK1/2(THR202/TYR204) HTRF assay, AGS. It counts as cell-based. To be noted: Homo sapiens, 2 h, 2 hours incubation.
Method: (§1) p-ERK (MAPK pathway) inhibition activity of each of compounds in a variety of K-Ras mutant and K-Ras WT cell lines indicated in Table 23 was evaluated.
(§2) Each of cells in culture medium was seeded in 96-well plates at density indicated in Table 23 and then put in a cell incubator to incubate overnight. The next day, the culture medium was removed and the compound diluted in assay medium was added in each well. […] 10 μL of cell lysates from the 96-well plates were transferred to a 384-well plate (Greiner) containing 2.5 μL/well HTRF® pre-mixed antibodies (Cisbio 64AERPEH). The plate was incubated 4 hours at 25° C. and then read HTRF signals on Tecan Spark multimode microplate reader. The data were analyzed using a 4-parameter logistic model to calculate IC50 values.
For another experiment, the system named is SW620 cells (K-Ras G12V). The experiment can be described thus: 2D cell growth inhibition assay, SW620. It counts as cell-based. To be noted: Homo sapiens, SW-620, 144 h, 6 days, absolute IC50.
Experiment [9] addresses T2, K-Ras WT. The experiment can be described thus: biochemical.
Experiment [10] deals with NCI-H747 cells (K-Ras G13D).
Method: The cell growth inhibition activity of each of compounds was tested by performing cell growth inhibition assays on a variety of K-Ras mutant and K-Ras WT cell lines indicated in Table 25.
Each of cells in culture medium was plated in ultra-low attachment-coated 96-well plates at a density indicated in Table 25 and incubated in a cell incubator overnight. The next day, each of compounds was diluted in culture medium and added to the plates. After 6 days incubation in cell incubator, the cell viability was detected by CellTiter-Glo® 3D Cell Viability Assay kit (Promega).
Experiment [11] relates to p-ERK in NCI-H747 cells (K-Ras G13D).
Method: as §1, §2

T1 sequence (P01116 1-169 isoform P01116-2 G12V): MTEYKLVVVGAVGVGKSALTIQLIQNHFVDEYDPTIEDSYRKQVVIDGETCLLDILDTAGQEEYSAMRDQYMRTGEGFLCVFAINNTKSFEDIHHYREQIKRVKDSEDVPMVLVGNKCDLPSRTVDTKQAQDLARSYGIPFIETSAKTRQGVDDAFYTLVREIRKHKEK
T3 sequence (P01116 1-169 isoform P01116-2 G13D): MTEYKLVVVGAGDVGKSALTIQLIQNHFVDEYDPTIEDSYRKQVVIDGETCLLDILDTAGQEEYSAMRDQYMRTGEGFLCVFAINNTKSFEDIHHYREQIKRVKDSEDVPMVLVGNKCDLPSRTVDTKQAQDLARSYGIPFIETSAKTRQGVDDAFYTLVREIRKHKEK
T2 sequence (P01116 1-169 isoform P01116-2): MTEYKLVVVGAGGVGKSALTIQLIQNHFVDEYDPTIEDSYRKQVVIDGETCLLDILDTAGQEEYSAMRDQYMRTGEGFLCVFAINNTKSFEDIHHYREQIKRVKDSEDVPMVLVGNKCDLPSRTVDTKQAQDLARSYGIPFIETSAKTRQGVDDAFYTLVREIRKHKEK

On to `C#Cc1c(F)ccc2cc(O)cc(-c3ncc4c(N5CCCO[C@H](CC#N)C5)nc(OC[C@@]56CCCN5C[C@H](F)C6)nc4c3F)c12` (single isomer, unassigned), for which the IC50 on K-Ras G12V [1] was 23.7 nM; against K-Ras G12V [2], 2070 nM; at K-Ras WT [3], 60.2 nM; on K-Ras G13D [4], greater than 200 nM; on K-Ras G13D [5], greater than 100 nM.
For the compound `C#Cc1c(F)ccc2cc(O)cc(-c3ncc4c(N5CCCOCC5)nc(OCC5CC6CCN5CC6)nc4c3F)c12` (centres unmarked) [Compound 99, 5-ethynyl-6-fluoro-4-(8-fluoro-4-(1,4-oxa-zepan-4-yl)-2-(quinuclidin-2-ylmethoxy)pyrido[4,3-d]pyrimidin-7-yl)naphthalen-2-ol], the IC50 was 22.6 nM on K-Ras G12V [1]; 2910 nM on K-Ras G12V [2]; 34.3 nM at K-Ras WT [3]; greater than 100 nM at K-Ras G13D [4]; greater than 100 nM at K-Ras G13D [5].
In the case of `C#Cc1c(F)ccc2cc(O)cc(-c3ncc4c(N5CCOCC(C)(F)C5)nc(OC[C@@]56CCCN5C[C@H](F)C6)nc4c3F)c12` (stereo partly drawn) [Compound 101, 5-ethynyl-6-fluoro-4-(8-fluoro-4-(6-fluoro-6-methyl-1,4-oxazepan-4-yl)-2-(((2R,7aS)-2-fluorotetrahydro-1H-pyrrolizin-7a(5H)-yl)methoxy)pyrido[4,3-d]pyrimidin-7-yl)naphthalen-2-ol], the IC50 was found to be 2.7 nM on K-Ras G12V [1]; 95.6 nM in [6]; 298 nM against K-Ras G12V [2]; 2.56 nM on K-Ras WT [3]; 25.5 nM in the experiment on AGS cells (K-Ras G12D); 218 nM in experiment [7]. Further, the IC50 in [8] was 7.7 nM; in the experiment with SW620 cells (K-Ras G12V), 120 nM; against K-Ras G13D [4], 2.18 nM; against K-Ras WT [9] it was 194 nM.
On to `C#Cc1c(F)ccc2cc(O)cc(-c3ccc4c(N5CCCOCC5)nc(OCC5(CN6CCOCC6)CC5)nc4c3F)c12` [Compound 20, 5-ethynyl-6-fluoro-4-(8-fluoro-2-((1-(morpholinomethyl)cyclopropyl)methoxy)-4-(1,4-oxazepan-4-yl)quinazolin-7-yl)naphthalen-2-ol trifluoroacetic acid], for which the IC50 at K-Ras G12V [1] worked out at 8.81 nM; in [6], 29.3 nM; at K-Ras G12V [2], 1630 nM; on K-Ras WT [3], 12.7 nM; in experiment [10] it was 339 nM; in the experiment on AGS cells (K-Ras G12D), 203 nM. The IC50 came out at 538 nM in experiment [7], 53 nM in experiment [8], 139 nM with SW620 cells (K-Ras G12V) and 28.2 nM in [11].
`C#Cc1c(F)ccc2cc(O)cc(-c3ncc4c(N5CCOC[C@@H](OC)C5)nc(OC[C@@]56CCCN5C[C@H](F)C6)nc4c3F)c12` (single isomer, unassigned) [Compound 49A]: the IC50 at K-Ras G12V [1] was 11 nM; in [6] it was 98.6 nM; on K-Ras G12V [2], 5620 nM; on K-Ras WT [3] it was 40.2 nM; on K-Ras G13D [4], 24.7 nM; against K-Ras G13D [5], greater than 100 nM.
Turning to `C#Cc1c(F)ccc2cc(O)cc(-c3ncc4c(N5CCCOCC5)nc(OCC56CCCN5CCC6)nc4c3F)c12` [Compound 21, 5-ethynyl-6-fluoro-4-(8-fluoro-4-(1,4-oxazepan-4-yl)-2-((tetrahydro-1H-pyrrolizin-7a(5H)-yl)methoxy)pyrido[4,3-d]pyrimidin-7-yl)naphthalen-2-ol trifluoroacetic acid], the IC50 in experiment [6] was found to be 135 nM; in experiment [10], 126 nM; with AGS cells (K-Ras G12D), 51.9 nM; in experiment [7], 1350 nM; in experiment [8] it was 10.2 nM; in the experiment with SW620 cells (K-Ras G12V), 61.4 nM. For the same compound, half-maximal inhibition in experiment [11] (IC50) required 60.7 nM.
Regarding `C#Cc1c(F)ccc2cc(O)cc(-c3ncc4c(N5CCOC(C)CC5)nc(OC[C@@]56CCCN5C[C@H](F)C6)nc4c3F)c12` (stereo partly drawn) [Compound 17, 5-ethynyl-6-fluoro-4-(8-fluoro-2-(((2R,7aS)-2-fluorotetrahydro-1H-pyrrolizin-7a(5H)-yl)methoxy)-4-(7-methyl-1,4-oxazepan-4-yl)pyrido[4,3-d]pyrimidin-7-yl)naphthalen-2-ol trifluoroacetic acid], the half-inhibitory concentration (IC50) on K-Ras G12V [1] worked out at 26.8 nM; on K-Ras G12V [2] it was 796 nM; against K-Ras G13D [5], 61.2 nM.
As for `C#Cc1c(F)ccc2cc(O)cc(-c3ncc4c(N5CCCOCC5)nc(OCC5CNCCN5C)nc4c3F)c12` (centres unmarked) [Compound 96, 5-ethynyl-6-fluoro-4-(8-fluoro-2-((1-methyl-piperazin-2-yl)methoxy)-4-(1,4-oxazepan-4-yl)pyrido[4,3-d]pyrimidin-7-yl)naph-thalen-2-ol], the IC50 on K-Ras G12V [1] is 18.6 nM; against K-Ras G12V [2], 2770 nM; at K-Ras WT [3] it was 65.9 nM; on K-Ras G13D [4], 114 nM; on K-Ras G13D [5] it was greater than 100 nM.
Take `C#Cc1c(F)ccc2cc(O)cc(-c3ncc4c(N5CCOCC(C#N)C5)nc(OC[C@@]56CCCN5C[C@H](F)C6)nc4c3F)c12` (some centres unmarked) [Compound 88]: the IC50 at K-Ras G12V [1] is 13.6 nM; against K-Ras G12V [2], 2850 nM; on K-Ras WT [3] it was 28.5 nM; on K-Ras G13D [5], greater than 100 nM.
For `C#Cc1c(F)ccc2cc(O)cc(-c3c(C(F)(F)F)cc4c(N5CCCOCC5)nc(OC[C@@]56CCCN5C[C@H](F)C6)nc4c3F)c12` [Compound 37, 5-ethynyl-6-fluoro-4-(8-fluoro-2-(((2R,7aS)-2-fluorotetrahydro-1H-pyrrolizin-7a(5H)-yl)methoxy)-4-(1,4-oxazepan-4-yl)-6-(trifluoromethyl)quinazolin-7-yl)naphthalen-2-ol], the IC50 on K-Ras G12V [1] was 6.71 nM; in experiment [6] it was 92 nM; at K-Ras G12V [2] it was 147 nM; on K-Ras WT [3] it was 9.93 nM; in the experiment on AGS cells (K-Ras G12D), 278 nM; in [7] it was 629 nM. The IC50 is 49.2 nM in experiment [8], 330 nM in the experiment on SW620 cells (K-Ras G12V), greater than 100 nM against K-Ras G13D [5] and 228 nM against K-Ras WT [9].
As to `C#Cc1c(F)ccc2cc(O)cc(-c3ncc4c(N5CC(C)COCC5C)nc(OC[C@@]56CCCN5C[C@H](F)C6)nc4c3F)c12` (stereo partly drawn) [Compound 27, 4-(4-(3,6-dimethyl-1,4-oxazepan-4-yl)-8-fluoro-2-(((2R,7aS)-2-fluorotetrahydro-1H-pyrrolizin-7a(5H)-yl)methoxy)pyrido[4,3-d]pyrimidin-7-yl)-5-ethynyl-6-fluoronaphthalen-2-ol], the IC50 at K-Ras G12V [1] is 8.13 nM; in experiment [6], 144 nM; on K-Ras G12V [2], 720 nM; on K-Ras WT [3], 9.51 nM; with AGS cells (K-Ras G12D), 216 nM; in [7], 904 nM. For the same compound, the IC50 in experiment [8] was determined as 65.1 nM; in the experiment with SW620 cells (K-Ras G12V), 90.7 nM; against K-Ras WT [9] it was 235 nM.
For `C#Cc1c(F)ccc2cc(O)cc(-c3ncc4c(N5CCOC[C@@H](F)C5)nc(OC[C@@]56CCCN5C[C@H](F)C6)nc4c3F)c12` (single isomer, unassigned) [Compound 12A], the IC50 on K-Ras G12V [1] is 1.48 nM; in experiment [6], 14 nM; against K-Ras G12V [2] it was 184 nM; on K-Ras WT [3] it was 2.26 nM; in the experiment on AGS cells (K-Ras G12D), 24.2 nM; in experiment [7] it was 301 nM. The IC50 in experiment [8] was found to be 13 nM; in the experiment on SW620 cells (K-Ras G12V), 25.2 nM; on K-Ras WT [9], 105 nM.
`C#Cc1c(F)ccc2cc(O)cc(-c3ncc4c(N5CCCO[C@@H](CC#N)C5)nc(OC[C@@]56CCCN5C[C@H](F)C6)nc4c3F)c12` (single isomer, unassigned) [Compound 15B]: the IC50 at K-Ras G12V [1] worked out at 0.873 nM; in experiment [6], 30.1 nM; at K-Ras G12V [2], 331 nM; on K-Ras WT [3], 1.4 nM; with AGS cells (K-Ras G12D) it was 30.4 nM; in [7], 465 nM. Besides, the IC50 was 13.9 nM in experiment [8], 59.6 nM in the experiment with SW620 cells (K-Ras G12V) and 173 nM on K-Ras WT [9].
As to `C#Cc1c(F)ccc2cc(O)cc(-c3ncc4c(N5CCOC[C@@H](C)C5)nc(OC[C@@]56CCCN5C[C@H](F)C6)nc4c3F)c12` (single isomer, unassigned) [Compound 13A], the IC50 stood at 4.08 nM on K-Ras G12V [1]; 42.3 nM in experiment [6]; 1210 nM against K-Ras G12V [2]; 5.99 nM at K-Ras WT [3]; 122 nM in the experiment on AGS cells (K-Ras G12D); 680 nM in experiment [7]. Further, the IC50 worked out at 44.4 nM in [8], 93.6 nM with SW620 cells (K-Ras G12V) and 794 nM on K-Ras WT [9].
For `C#Cc1c(F)ccc2cc(O)cc(-c3ncc4c(N5CCOC[C@@H](O)C5)nc(OC[C@@]56CCCN5C[C@H](F)C6)nc4c3F)c12` (single isomer, unassigned) [Compound 46B], the IC50 amounted to 1.26 nM at K-Ras G12V [1]; 45.7 nM in experiment [6]; 50.9 nM at K-Ras G12V [2]; 0.964 nM at K-Ras WT [3]; 20.6 nM in the experiment with AGS cells (K-Ras G12D); 446 nM in [7]. Besides, the IC50 worked out at 15 nM in experiment [8], 50.1 nM with SW620 cells (K-Ras G12V) and 31.7 nM on K-Ras WT [9].
